Measurements published in PubChem BioAssay AID2060490 (Molecular Pharmacology Branch, DTP, NCI, 2025).

Tested on: 885512-296-R-J2-PDC complex spheroid viability
Assay: Anticancer human tumor 885512-296-R-J2-PDC patient-derived breast carcinoma cell line growth inhibition [GQUAD]
Details: for IC50: curve of first compound; for viability, T/C: stronger effect = lower value
Method in brief: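 Viability of tumor cells grown as complex spheroids with endothelial and stromal cells, exposed to drug combinations. Top concentration at or near clinical Cmax (else 10 microM), diluted in half-log increments.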

[1] = second compound 0.0316 µM, first compound 0.0316 µM
[2] = second compound 0.0316 µM, first compound 0.1 µM
[3] = second compound 0.0316 µM, first compound 0.316 µM
[4] = second compound 0.0316 µM, first compound 1 µM
[5] = second compound 0.0316 µM, first compound 3.16 µM
[6] = second compound 0.0316 µM, first compound 10 µM
[7] = second compound 0.1 µM, first compound 0.0316 µM
[8] = second compound 0.1 µM, first compound 0.1 µM
[9] = second compound 0.1 µM, first compound 0.316 µM
[10] = second compound 0.1 µM, first compound 1 µM
[11] = second compound 0.1 µM, first compound 3.16 µM
[12] = second compound 0.1 µM, first compound 10 µM
[13] = second compound 0.316 µM, first compound 0.0316 µM
[14] = second compound 0.316 µM, first compound 0.1 µM
[15] = second compound 0.316 µM, first compound 0.316 µM
[16] = second compound 0.316 µM, first compound 1 µM
[17] = second compound 0.316 µM, first compound 3.16 µM
[18] = second compound 0.316 µM, first compound 10 µM
[19] = second compound 1 µM, first compound 0.0316 µM
[20] = second compound 1 µM, first compound 0.1 µM
[21] = second compound 1 µM, first compound 0.316 µM
[22] = second compound 1 µM, first compound 1 µM
[23] = second compound 1 µM, first compound 3.16 µM
[24] = second compound 1 µM, first compound 10 µM
[25] = second compound 3.16 µM, first compound 0.0316 µM
[26] = second compound 3.16 µM, first compound 0.1 µM
[27] = second compound 3.16 µM, first compound 0.316 µM
[28] = second compound 3.16 µM, first compound 1 µM
[29] = second compound 3.16 µM, first compound 3.16 µM
[30] = second compound 3.16 µM, first compound 10 µM
[31] = second compound 10 µM, first compound 0.0316 µM
[32] = second compound 10 µM, first compound 0.1 µM
[33] = second compound 10 µM, first compound 0.316 µM
[34] = second compound 10 µM, first compound 1 µM
[35] = second compound 10 µM, first compound 3.16 µM
[36] = second compound 10 µM, first compound 10 µM
[37] = second compound 0.0316 µM, first compound 0.000999 µM
[38] = second compound 0.0316 µM, first compound 0.00316 µM
[39] = second compound 0.0316 µM, first compound 0.00999 µM
[40] = second compound 0.0316 µM, first compound 0.0999 µM
[41] = second compound 0.1 µM, first compound 0.000999 µM
[42] = second compound 0.1 µM, first compound 0.00316 µM
[43] = second compound 0.1 µM, first compound 0.00999 µM
[44] = second compound 0.1 µM, first compound 0.0999 µM
[45] = second compound 0.316 µM, first compound 0.000999 µM
[46] = second compound 0.316 µM, first compound 0.00316 µM
[47] = second compound 0.316 µM, first compound 0.00999 µM
[48] = second compound 0.316 µM, first compound 0.0999 µM
[49] = second compound 1 µM, first compound 0.000999 µM
[50] = second compound 1 µM, first compound 0.00316 µM
[51] = second compound 1 µM, first compound 0.00999 µM
[52] = second compound 1 µM, first compound 0.0999 µM
[53] = second compound 3.16 µM, first compound 0.000999 µM
[54] = second compound 3.16 µM, first compound 0.00316 µM
[55] = second compound 3.16 µM, first compound 0.00999 µM
[56] = second compound 3.16 µM, first compound 0.0999 µM
[57] = second compound 10 µM, first compound 0.000999 µM
[58] = second compound 10 µM, first compound 0.00316 µM
[59] = second compound 10 µM, first compound 0.00999 µM
[60] = second compound 10 µM, first compound 0.0999 µM
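Further: spheroids exposed to the compounds for one week.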
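Wherever viability, T/C is given: percent of tumor spheroid viability relative to DMSO vehicle control wells.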

Nc1ccn(C2OC(CO)C(O)C2(F)F)c(=O)n1 (stereo not drawn) + Cc1[nH]c2ccc(F)cc2c1-c1nc2c3cccnc3c3ncccc3c2[nH]1
IC50 (second compound 0.0316 µM): < 0.0316 µM
IC50 (second compound 0.1 µM): < 0.0316 µM
IC50 (second compound 0.316 µM): < 0.0316 µM
IC50 (second compound 1 µM): < 0.0316 µM
IC50 (second compound 3.16 µM): < 0.0316 µM
IC50 (second compound 10 µM): < 0.0316 µM
viability, T/C [1]: 14.6%
viability, T/C [2]: 3.03%
viability, T/C [3]: 2.43%
viability, T/C [4]: 3.01%
viability, T/C [5]: 3.2%
viability, T/C [6]: 2.56%
viability, T/C [7]: 16.3%
viability, T/C [8]: 3.26%
viability, T/C [9]: 3.63%
viability, T/C [10]: 3.04%
viability, T/C [11]: 3%
viability, T/C [12]: 3.74%
viability, T/C [13]: 14.6%
viability, T/C [14]: 3.44%
viability, T/C [15]: 3.02%
viability, T/C [16]: 2.57%
viability, T/C [17]: 2.96%
viability, T/C [18]: 3.36%
viability, T/C [19]: 8.48%
viability, T/C [20]: 2.45%
viability, T/C [21]: 2.51%
viability, T/C [22]: 2.76%
viability, T/C [23]: 2.94%
viability, T/C [24]: 2.65%
viability, T/C [25]: 2.21%
viability, T/C [26]: 1.43%
viability, T/C [27]: 1.74%
viability, T/C [28]: 1.98%
viability, T/C [29]: 1.96%
viability, T/C [30]: 1.86%
viability, T/C [31]: 1.33%
viability, T/C [32]: 1.29%
viability, T/C [33]: 1.17%
viability, T/C [34]: 1.35%
viability, T/C [35]: 1.44%
viability, T/C [36]: 1.08%

Cn1ncnc1[C@H]1c2n[nH]c(=O)c3cc(F)cc(c23)N[C@@H]1c1ccc(F)cc1 + CN(C)c1ccc(Nc2c3ccc(NC(=O)CCN4CCCC4)cc3nc3cc(NC(=O)CCN4CCCC4)ccc23)cc1
IC50 (second compound 0.0316 µM): 0.208 µM
IC50 (second compound 0.1 µM): > 0.316 µM
IC50 (second compound 0.316 µM): 0.215 µM
IC50 (second compound 1 µM): 0.195 µM
IC50 (second compound 3.16 µM): 0.074 µM
IC50 (second compound 10 µM): < 0.000999 µM
viability, T/C [37]: 90%
viability, T/C [38]: 96.1%
viability, T/C [39]: 91.3%
viability, T/C [1]: 90.5%
viability, T/C [40]: 64.3%
viability, T/C [3]: 41.9%
viability, T/C [41]: 112%
viability, T/C [42]: 91.8%
viability, T/C [43]: 99.3%
viability, T/C [7]: 75.9%
viability, T/C [44]: 71.6%
viability, T/C [9]: 53.9%
viability, T/C [45]: 112%
viability, T/C [46]: 101%
viability, T/C [47]: 94.4%
viability, T/C [13]: 79.5%
viability, T/C [48]: 61.5%
viability, T/C [15]: 44%
viability, T/C [49]: 96.8%
viability, T/C [50]: 94%
viability, T/C [51]: 90.4%
viability, T/C [19]: 81.4%
viability, T/C [52]: 57.8%
viability, T/C [21]: 44.2%
viability, T/C [53]: 95.2%
viability, T/C [54]: 96.9%
viability, T/C [55]: 93.8%
viability, T/C [25]: 64.7%
viability, T/C [56]: 47.8%
viability, T/C [27]: 36%
viability, T/C [57]: 18.6%
viability, T/C [58]: 23%
viability, T/C [59]: 25%
viability, T/C [31]: 20.3%
viability, T/C [60]: 19.1%
viability, T/C [33]: 15.5%

C=CCn1c(=O)c2cnc(Nc3ccc(N4CCN(C)CC4)cc3)nc2n1-c1cccc(C(C)(C)O)n1 + CN(C)c1ccc(Nc2c3ccc(NC(=O)CCN4CCCC4)cc3nc3cc(NC(=O)CCN4CCCC4)ccc23)cc1
IC50 (second compound 0.0316 µM): 0.415 µM
IC50 (second compound 0.1 µM): 0.311 µM
IC50 (second compound 0.316 µM): 0.341 µM
IC50 (second compound 1 µM): 0.462 µM
IC50 (second compound 3.16 µM): 0.358 µM
IC50 (second compound 10 µM): < 0.0316 µM
viability, T/C [1]: 104%
viability, T/C [2]: 102%
viability, T/C [3]: 62.7%
viability, T/C [4]: 8.77%
viability, T/C [5]: 3.39%
viability, T/C [6]: 2.43%
viability, T/C [7]: 120%
viability, T/C [8]: 98.9%
viability, T/C [9]: 51.7%
viability, T/C [10]: 7.71%
viability, T/C [11]: 3.11%
viability, T/C [12]: 2.74%
viability, T/C [13]: 122%
viability, T/C [14]: 93.5%
viability, T/C [15]: 58%
viability, T/C [16]: 9.28%
viability, T/C [17]: 2.73%
viability, T/C [18]: 2.28%
viability, T/C [19]: 102%
viability, T/C [20]: 103%
viability, T/C [21]: 70.5%
viability, T/C [22]: 8.23%
viability, T/C [23]: 2.54%
viability, T/C [24]: 2.76%
viability, T/C [25]: 105%
viability, T/C [26]: 98.3%
viability, T/C [27]: 55.2%
viability, T/C [28]: 8.19%
viability, T/C [29]: 2.51%
viability, T/C [30]: 2.74%
viability, T/C [31]: 22%
viability, T/C [32]: 22.4%
viability, T/C [33]: 12.2%
viability, T/C [34]: 5.57%
viability, T/C [35]: 1.22%
viability, T/C [36]: 1.46%

Cn1ncnc1[C@H]1c2n[nH]c(=O)c3cc(F)cc(c23)N[C@@H]1c1ccc(F)cc1 + Cc1[nH]c2ccc(F)cc2c1-c1nc2c3cccnc3c3ncccc3c2[nH]1
IC50 (second compound 0.0316 µM): 0.277 µM
IC50 (second compound 0.1 µM): 0.234 µM
IC50 (second compound 0.316 µM): 0.22 µM
IC50 (second compound 1 µM): 0.106 µM
IC50 (second compound 3.16 µM): < 0.000999 µM
IC50 (second compound 10 µM): < 0.000999 µM
viability, T/C [37]: 108%
viability, T/C [38]: 84.1%
viability, T/C [39]: 89.5%
viability, T/C [1]: 86.8%
viability, T/C [40]: 66.4%
viability, T/C [3]: 46.8%
viability, T/C [41]: 104%
viability, T/C [42]: 101%
viability, T/C [43]: 93.9%
viability, T/C [7]: 75.4%
viability, T/C [44]: 76.2%
viability, T/C [9]: 41.1%
viability, T/C [45]: 90.8%
viability, T/C [46]: 82.9%
viability, T/C [47]: 82.1%
viability, T/C [13]: 77.3%
viability, T/C [48]: 67%
viability, T/C [15]: 42.1%
viability, T/C [49]: 70.8%
viability, T/C [50]: 79.3%
viability, T/C [51]: 67.6%
viability, T/C [19]: 57.7%
viability, T/C [52]: 53.6%
viability, T/C [21]: 34.6%
viability, T/C [53]: 25.6%
viability, T/C [54]: 23.2%
viability, T/C [55]: 17.1%
viability, T/C [25]: 15.6%
viability, T/C [56]: 13.8%
viability, T/C [27]: 7.86%
viability, T/C [57]: 3.25%
viability, T/C [58]: 3.75%
viability, T/C [59]: 8.84%
viability, T/C [31]: 2.56%
viability, T/C [60]: 2.53%
viability, T/C [33]: 2.11%
